Test results published in patent US11339193B2, “CDP protein secretion inhibitors” (KEZAR LIFE SCIENCES, priority 2018, dated 2022).
Like-named read-outs stand apart in the source and are kept apart here. Numbered stars: 1 amine (or outer) side, 2 acyl side, 3 side chain; on linkers, the order of the positions; unused ones are H or OH. Square brackets hold non-standard residues; d marks the D form. Peptide text beside a SMILES is read from it. NMeAla(5-Cl-benzothien-3-yl) = CN[C@@H](Cc1csc2ccc(Cl)cc12)C(=O)O; X19 = CN([C@@H](Cc1cn(Cc2ccc(Cl)cc2)c2ccccc12)C(=O)[*:2])[*:1]; X14 = CC#CCn1cc(C[C@@H](C(=O)[*:2])N(C)[*:1])c2ccccc21; X15 = CCn1cc(C[C@@H](C(=O)[*:2])N(C)[*:1])c2ccccc21; Ala(1-cyclohexenyl) = N[C@@H](CC1=CCCCC1)C(=O)O; Butanoyl(2R-oxy,4-CN) = N#CCC[C@@H](O)C(=O)O; X22 = CCCC[C@@H](C)C[C@H](N[*:1])C(=O)[*:2]; Abu(4,4,4-F3) = N[C@@H](CC(F)(F)F)C(=O)O; NMeCha = CN[C@@H](CC1CCCCC1)C(=O)O; Cha = N[C@@H](CC1CCCCC1)C(=O)O; NMeL = CN[C@@H](CC(C)C)C(=O)O; NMeA = CN[C@@H](C)C(=O)O; Nva = CCC[C@H](N)C(=O)O; Abu = CC[C@H](N)C(=O)O

What was measured:
Format in all cases: cell-based
[1] = test system: PD1-ss+10aa/Gaussia Luciferase; assay: Dox induced PD1-ss-Gluc assay
Text: Dox Induced PD1-ss-Gluc Assay
(§1) Flp-In 293 T-REx™ cells were transfected with pcDNA™5/FRT/TO plasmid inserted with cDNA encoding Gaussia Luciferase fused to the 3′ end of cDNA encoding PD1 signal sequence plus 10 amino acids (N-[…]-C) (SEQ ID NO:3). Transfected cells were selected for resistance to the selectable markers Hygromycin and Blasticidin to create a stable cell line that contained the PD1-ss+10aa/Gaussia Luciferase cDNA insert whose expression was regulated under the T-REx™ system. The day before assay, cells were trypsinized and plated in 384-well tissue culture plates. The next day, compound dilutions in DMSO/media containing doxycycline were added to the wells and incubated at 37° C., 5% CO2.

[2] = test system: TNFα-FL/Gaussia Luciferase; assay: Dox induced TNFα-FL-Gluc assay
Text: Dox Induced TNFα-FL-Gluc Assay
Flp-In 293 T-REx™ cells were transfected with pcDNA™5/FRT/TO plasmid inserted with cDNA encoding Gaussia Luciferase fused to the 3′ end of cDNA encoding full length TNFα (amino acids 1-233). Transfected cells were selected for resistance to the selectable markers Hygromycin and Blasticidin to create a stable cell line that contained the TNFα-FL/Gaussia Luciferase cDNA insert whose expression was regulated under the T-REx™ system. The day before assay, cells were trypsinized and plated in 384-well tissue culture plates. The next day, compound dilutions in DMSO/media containing doxycycline were added to the wells and incubated at 37° C., 5% CO2.

[3] = test system: NCI-H929 multiple myeloma cell line; assay: H929 assay (cell viability, Celltiter-Glo); conditions: Homo sapiens, read-out: H929 EC50
Procedure: The human multiple myeloma cell line NCI-H929 was cultured in Advanced RPMI 1640 media (Gibco@) supplemented with 6% fetal bovine serum, 2 mM Glutamine, and 1× Penicillin/Streptomycin. On the day of assay, cells were resuspended in RPMI 1640 media supplemented with 10% fetal bovine serum, 2 mM Glutamine, and 1× Penicillin/Streptmycin and plated in 384-well tissue culture plates and treated with compound dilutions in DMSO/media. Plates were incubated at 37° C., 5% CO2 for 48 hours. After 48 hours, Celltiter-Glo@ (Promega) was added to each well and luciferase signal was quantified using Tecan Infinite M1000 Pro for cell viability determination.

HER3ss-Gluc = assay: HER3ss assay
Procedure: The mature domain of secreted luciferase from Gaussia princeps (GLuc) was cloned into pcDNA5/FRT/TO. The signal sequence plus four amino acids of the mature domain from HER3 ([…]) (SEQ ID NO:8) were cloned upstream of GLuc mature domain and used in transient transfection experiment. HEK-293T T-rex cells were cultured in Dulbecco's modified Eagle's medium with 10% FBS at 5% CO2. Cells were plated 1×10e6 cells per well in a 6-well plate and incubated for 6 h. Cells were transiently transfected with HER3ss-Gluc using Lipofectamine 2000 (Invitrogen). After overnight incubation, transfected cells were replated in a clear-bottomed, black 96-well plate at a density of 20,000 cells per well. Six hours after plating, the cells were treated with doxycycline (1 μg/ml) and increasing concentrations of the indicated compounds for 24 h. Secreted luciferase in the conditioned media was quantified by luminescence using the BioLux Gaussia Luciferase Assay Kit (New England Biolabs, Ipswich, Mass., USA) and a SpectraMax M5 plate reader (Molecular Devices).

[4] = test system: Prl-ss+10aa/Gaussia Luciferase; assay: Prl-ss-Gluc assay (constitutively active or 24 hr Dox inducible)
Text: Constitutively Active Prl-ss-Gluc Assay
Flp-In 293 T-REx™ cells were transfected with pcDNA™5/FRT plasmid inserted with cDNA encoding Gaussia Luciferase fused to the 3′ end of cDNA encoding Prl signal sequence plus 10 amino acids (N-[…]-C) (SEQ ID NO:4). Transfected cells were selected for resistance to the selectable markers Hygromycin and Blasticidin to create a stable cell line that constitutively expressed the Prlss+10aa/Gaussia Luciferase fusion protein. The day before assay, cells were trypsinized and plated in 384-well tissue culture plates. The next day, culture media was removed from the wells and replaced with fresh media. Compound dilutions in DMSO/media were added to the wells and incubated at 37° C., 5% CO2.
24 hr Dox Inducible Prl-ss-Gluc Assay
as §1, with “Prl” for “PD1”, “NO:5).” for “NO:3).”, “Prl-ss+10aa/Gaussia” for “PD1-ss+10aa/Gaussia”

[5] = test system: U266B1 multiple myeloma cell line; assay: U266 assay (cell viability, Celltiter-Glo); conditions: Homo sapiens, U-266
Procedure: Cells were plated in 384-well tissue culture plates and treated with compound dilutions in DMSO/media. Plates were incubated at 37° C., 5% CO2 for 48 hours. After 48 hours, Celltiter-Glo@ (Promega) was added to each well and luciferase signal was quantified using Tecan Infinite M1000 Pro for cell viability determination.

[6] = Flp-In 293 T-REx cells, doxycycline, 24 hours; read-out: PD1ss Gluc IC50
[7] = Flp-In 293 T-REx cells, doxycycline, 24 hours; read-out: TNFa FL Gluc IC50
[8] = NCI-H929, 48 hours, cell viability
[9] = HEK-293T T-rex cells, transient transfection, doxycycline, 24 h; read-out: HER3 ss IC50
[10] = I.A.; read-out: TNFa FL Gluc IC50
[11] = Flp-In 293 T-REx cells, 24 hours; read-out: Prl IC50

Row | IC50 [1, 6] | IC50 [2, 7] | EC50 [3, 8] | IC50 (HER3ss-Gluc; [9]) | IC50 ([4]; I.A.; read-out: Prl IC50) | EC50 ([5]; I.A.) | IC50 [4, 11] | Compound | other results
1 | 248 nM | 911 nM | 4.91 µM |  |  |  | 2500 nM | CCCC[C@@H](C)C[C@@H]1NC(=O)[C@H](CC2CCCCC2)N(C)C(=O)[C@H](CC(C)C)NC(=O)[C@H](CC(C)C)N(C)C(=O)[C@H](CC2CCCCC2)NC(=O)[C@@H](CCC#N)OC(=O)[C@H](C)N(C)C1=O [C-45] (cyclo([Cha][NMeL]L[NMeCha][X22][NMeA][Butanoyl(2R-oxy,4-CN)])) | 
2 | 274 nM | 986 nM | 4.88 µM | 124 nM |  | > 25000 nM | 9800 nM | CC#CCn1cc(C[C@H]2C(=O)N[C@@H](CC(C)C)C(=O)N(C)[C@@H](C)C(=O)O[C@H](CCC#N)C(=O)N[C@@H](CC(F)(F)F)C(=O)N(C)[C@@H](CC(C)C)C(=O)N[C@@H](CC(F)(F)F)C(=O)N2C)c2ccccc21 [C-91] (cyclo(L[NMeA][Butanoyl(2R-oxy,4-CN)][Abu(4,4,4-F3)][NMeL][Abu(4,4,4-F3)][X14])) | 
3 |  |  |  | 11 nM | > 25000 nM | > 25000 nM |  | CC(C)C[C@@H]1NC(=O)[C@H](Cc2csc3ccc(Cl)cc23)N(C)C(=O)[C@H](CC2=CCCCC2)NC(=O)[C@H](CC(C)C)N(C)C(=O)[C@H](CC2=CCCCC2)NC(=O)[C@@H](CCC#N)OC(=O)[C@H](C)N(C)C1=O [C-87] (cyclo(L[NMeA][Butanoyl(2R-oxy,4-CN)][Ala(1-cyclohexenyl)][NMeL][Ala(1-cyclohexenyl)][NMeAla(5-Cl-benzothien-3-yl)])) | IC50 ([1]; I.A.; read-out: PD1ss Gluc IC50): > 25000 nM; IC50 [2, 10]: > 25000 nM; EC50 ([3]; NCI-H929, I.A.): > 25 µM
4 | 67 nM | 211 nM | 0.593 µM |  |  |  | 1530 nM | CCCC[C@@H](C)C[C@@H]1NC(=O)[C@H](CC2CCCCC2)N(C)C(=O)[C@H](CC)NC(=O)[C@H](CC(C)C)N(C)C(=O)[C@H](C[C@H](C)CCCC)NC(=O)[C@@H](CCC#N)OC(=O)[C@H](C)N(C)C1=O [C-43] (cyclo([Abu][NMeCha][X22][NMeA][Butanoyl(2R-oxy,4-CN)][X22][NMeL])) | 

The remaining lines, values behind:

Row | Compound | IC50 [1, 6] | IC50 [2, 7] | EC50 [3, 8] | IC50 (HER3ss-Gluc; [9]) | IC50 ([4]; I.A.; read-out: Prl IC50) | EC50 ([5]; I.A.) | IC50 [4, 11] | other results
5 | CC(C)C[C@@H]1NC(=O)[C@H](Cc2csc3ccc(Cl)cc23)N(C)C(=O)[C@H](CC(C)C)NC(=O)[C@H](CC(C)C)N(C)C(=O)[C@H](CC(F)(F)F)NC(=O)[C@@H](CCC#N)OC(=O)[C@H](C)N(C)C1=O [C-67] (cyclo(L[NMeA][Butanoyl(2R-oxy,4-CN)][Abu(4,4,4-F3)][NMeL]L[NMeAla(5-Cl-benzothien-3-yl)])) | 397 nM | 754 nM | 4.09 µM | 9 nM |  |  |  | 
6 | CC(C)C[C@@H]1NC(=O)[C@H](Cc2csc3ccc(Cl)cc23)N(C)C(=O)[C@H](CC2=CCCCC2)NC(=O)[C@H](CC(C)C)N(C)C(=O)[C@H](CC(F)(F)F)NC(=O)[C@@H](CCC#N)OC(=O)[C@H](C)N(C)C1=O [C-97] (cyclo(L[NMeA][Butanoyl(2R-oxy,4-CN)][Abu(4,4,4-F3)][NMeL][Ala(1-cyclohexenyl)][NMeAla(5-Cl-benzothien-3-yl)])) | 709 nM |  |  | 6 nM | > 25000 nM | > 25000 nM |  | IC50 [2, 10]: > 25000 nM; EC50 ([3]; NCI-H929, 48 hours, cell viability, μM): > 20 µM
7 | CCn1cc(C[C@H]2C(=O)N[C@@H](CC(C)C)C(=O)N(C)[C@@H](C)C(=O)O[C@H](CCC#N)C(=O)N[C@@H](CC(F)(F)F)C(=O)N(C)[C@@H](CC(C)C)C(=O)N[C@@H](CC(F)(F)F)C(=O)N2C)c2ccccc21 [C-79] (cyclo(L[NMeA][Butanoyl(2R-oxy,4-CN)][Abu(4,4,4-F3)][NMeL][Abu(4,4,4-F3)][X15])) | 390 nM | 1490 nM | 4.74 µM | 112 nM | > 25000 nM | > 25000 nM |  | 
8 | CC(C)C[C@@H]1NC(=O)[C@H](Cc2cn(Cc3ccc(Cl)cc3)c3ccccc23)N(C)C(=O)[C@H](CC(C)C)NC(=O)[C@H](CC(C)C)N(C)C(=O)[C@H](CC(F)(F)F)NC(=O)[C@@H](CCC#N)OC(=O)[C@H](C)N(C)C1=O [C-95] (cyclo(L[NMeA][Butanoyl(2R-oxy,4-CN)][Abu(4,4,4-F3)][NMeL]L[X19])) |  |  |  |  |  | > 25000 nM |  | IC50 ([1]; read-out: PD1ss Gluc IC50; Flp-In 293 T-REx cells, doxycycline, 24 hours): 19 nM; IC50 ([2]; read-out: TNFa FL Gluc IC50; Flp-In 293 T-REx cells, doxycycline, 24 hours): 93 nM; EC50 ([3]; NCI-H929, 48 h): 0.588 µM; IC50 ([4]; read-out: Prl IC50; Flp-In 293 T-REx cells, 24 hours): 391 nM; IC50 (HER3ss-Gluc; read-out: HER3 ss IC50; HEK-293T T-rex cells, transient transfection, doxycycline, 24 h): 35 nM
9 | CC(C)C[C@@H]1NC(=O)[C@H](Cc2csc3ccc(Cl)cc23)N(C)C(=O)[C@H](CC(C)C)NC(=O)[C@H](CC(C)C)N(C)C(=O)[C@H](CC(C)C)NC(=O)[C@@H](CCC#N)OC(=O)[C@H](C)N(C)C1=O [C-93] (HELM PEPTIDE1{L.[meA].[N#CCC[C@@H](O[*:1])C(=O)[*:2]].L.[meL].L.[CN([C@@H](Cc1csc2ccc(Cl)cc12)C(=O)[*:2])[*:1]]}$PEPTIDE1,PEPTIDE1,1:R1-7:R2$$$V2.0) | 278 nM | 672 nM | 3.39 µM | 38 nM |  |  | 5700 nM | EC50 ([5]; 48 hours, cell viability): 16200 nM
10 | CC(C)C[C@@H]1NC(=O)[C@H](Cc2csc3ccc(Cl)cc23)N(C)C(=O)[C@H](CC(F)(F)F)NC(=O)[C@H](CC(C)C)N(C)C(=O)[C@H](CC(F)(F)F)NC(=O)[C@@H](CCC#N)OC(=O)[C@H](C)N(C)C1=O [C-90] (cyclo(L[NMeA][Butanoyl(2R-oxy,4-CN)][Abu(4,4,4-F3)][NMeL][Abu(4,4,4-F3)][NMeAla(5-Cl-benzothien-3-yl)])) | 520 nM | 2880 nM |  | 38 nM | > 25000 nM | > 25000 nM |  | EC50 ([3]; NCI-H929, I.A.): > 25 µM
11 | CCCC[C@@H](C)C[C@@H]1NC(=O)[C@H](CC2CCCCC2)N(C)C(=O)[C@H](CCC)NC(=O)[C@H](CC(C)C)N(C)C(=O)[C@H](C[C@H](C)CCCC)NC(=O)[C@@H](CCC#N)OC(=O)[C@H](C)N(C)C1=O [C-44] (cyclo([NMeA][Butanoyl(2R-oxy,4-CN)][X22][NMeL][Nva][NMeCha][X22])) | 37 nM | 109 nM | 0.376 µM |  |  |  | 740 nM | 
